Data on six molecules can be found in patent US20040242579A1, “Triazine derivatives and their use as sunscreens” (priority 2001, published 2004).

This data set in a line: UV absorption (λmax, molar extinction ε, extinction value E 1%, 1 cm) of the triazine UV filters. The format is physicochemical.
Setting [1] is: at λmax 320 nm, solvent not stated.
The mark [2] stands for this setting: second band at 224 nm, solvent not stated.

`CC1(C)CC(=O)C(=CNc2nc(NC=C3C(=O)CC(C)(C)CC3=O)nc(-c3ccccc3)n2)C(=O)C1` [Example 1]: under setting [1], the “E (=extinction value) (1%, 1 cm)” value is on record as 1045 and the ε is 51000 L/mol/cm. The same molecule displayed a λmax (main band, solvent not stated) of 320 nm. Under setting [2], the “E (1%, 1 cm)” value stood at 732 and the ε stood at 35700 L/mol/cm. Also, for the setting “second band, solvent not stated”, the γmax amounted to 224 nm.
On to `CC(=O)C(=CNc1nc(NC=C(C(C)=O)C(C)=O)nc(-c2ccccc2)n1)C(C)=O` [Example 2], for which, for the setting “at λmax, in ethanol”, the “E (1%, 1 cm)” value was 1053 and the ε turned out to be 42900 L/mol/cm. The molecule further displayed a λmax (in ethanol) of 322 nm.
As for `CC1(C)OC(=O)C(=CNc2nc(NC=C3C(=O)OC(C)(C)OC3=O)nc(-c3ccccc3)n2)C(=O)O1` [Example 3], where the note is “at λmax, in dioxane”, the “E (1%, 1 cm)” value was found to be 1374 and the ε was found to be 68000 L/mol/cm. Where the note is “in dioxane”, this molecule displayed a λmax of 332 nm.
On to `CCOC(=O)/C(=C\Nc1nc(N/C=C(\C(C)=O)C(=O)OCC)nc(-c2ccccc2)n1)C(C)=O` [Example 4], for which, for the setting “at λmax, in ethanol”, the “E (1%, 1 cm)” value was found to be 983 and the ε worked out at 46000 L/mol/cm. Further, for the setting “in ethanol”, the λmax came to 319 nm.
Turning to `CCOC(=O)/C(=C\Nc1nc(N/C=C(\C(C)=O)C(=O)OCC)nc(N/C=C(\C(C)=O)C(=O)OCC)n1)C(C)=O` [Example 5], under “at λmax, in dioxane”, the “E (1%, 1 cm)” value is on record as 1350. Moreover, the λmax (in dioxane) came to 325 nm.
As to `CC1(C)OC(=O)C(=CNc2nc(NC=C3C(=O)OC(C)(C)OC3=O)nc(NC=C3C(=O)OC(C)(C)OC3=O)n2)C(=O)O1` [Example 6], for the setting “at λmax, in dioxane”, the “E (1%, 1 cm)” value worked out at 1053 and the ε was 61 956. For the setting “in dioxane”, this molecule had a λmax of 326 nm.
